# According to patent US12441725B2, “ISO-citrate dehydrogenase (IDH) inhibitor” (ZHEJIANG METON PHARMACEUTICAL CO., LTD, priority 2019, dated 2025):
# pIC50: −log10 of the molar value.
# Experiments:
# [1] = target: T1, IDH (endogenous IDH1 R132C) in HT1080 cell (Homo sapiens, UniProt O75874, R132C); experiment: Cell-based assay for IDH inhibition (decrease of D-2-HG) in HT1080 cells; conditions: human fibrosarcoma cell line HT1080, 16 hours treatment, D-2-HG by LC-MS, in triplet
# T1 construct: which harbor endogenous heterozygous IDH1 R132C and R132H mutation respectively and accumulate D-2-HG
# How it was run: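 HT1080 cells with endogenous IDH1 R132C, grown in DMEM/10% FBS, treated with compound at several concentrations for 16 h. Metabolites extracted in cold 40% methanol/40% acetonitrile and D-2-HG measured by HILIC LC-MS/MS, normalized to glutamate. IC50 from D-2-HG relative to DMSO controls; run in triplicate.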
# IDH1 R132H = target: T2, IDH1 R132H (Homo sapiens, UniProt O75874, R132H); experiment: Biochemical assay for IDH inhibition (NADPH fluorescence), mutant IDH1 R132H; conditions: 50 nM IDH1-R132H, 1 hour pre-incubation, in triplet
# T2 construct: 6xHis
# How it was run: (§1)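 Mutant enzyme (25 nM R132C or 50 nM R132H) was preincubated 1 h at room temperature with compound in pH 7.5 Tris buffer containing 1.33 mM α-KG, and the reaction was then started with NADPH (80 μM solution). NADPH consumption was followed by fluorescence (Ex 340/Em 460 nm) for 15 min. IC50 was derived from background-corrected linear rates relative to vehicle, run in triplicate.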
# IDH1 R132C = target: T3, IDH1 R132C (Homo sapiens, UniProt O75874, R132C); experiment: Biochemical assay for IDH inhibition (NADPH fluorescence), mutant IDH1 R132C; conditions: 25 nM IDH1-R132C, 1 hour pre-incubation, in triplet
# T3 construct: 6xHis
# How it was run: as §1
# T1 sequence (O75874 2-414 R132C): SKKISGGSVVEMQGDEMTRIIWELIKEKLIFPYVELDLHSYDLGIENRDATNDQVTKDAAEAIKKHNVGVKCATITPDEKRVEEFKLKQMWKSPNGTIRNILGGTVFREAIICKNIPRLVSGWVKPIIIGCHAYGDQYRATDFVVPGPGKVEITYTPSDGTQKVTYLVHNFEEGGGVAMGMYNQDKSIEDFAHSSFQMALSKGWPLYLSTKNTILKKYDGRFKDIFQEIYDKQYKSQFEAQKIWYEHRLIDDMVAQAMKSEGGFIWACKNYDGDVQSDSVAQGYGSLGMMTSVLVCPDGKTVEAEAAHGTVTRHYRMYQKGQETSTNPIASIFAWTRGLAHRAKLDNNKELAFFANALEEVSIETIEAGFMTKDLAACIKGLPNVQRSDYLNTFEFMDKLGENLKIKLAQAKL
# T2 sequence (O75874 whole entry R132H): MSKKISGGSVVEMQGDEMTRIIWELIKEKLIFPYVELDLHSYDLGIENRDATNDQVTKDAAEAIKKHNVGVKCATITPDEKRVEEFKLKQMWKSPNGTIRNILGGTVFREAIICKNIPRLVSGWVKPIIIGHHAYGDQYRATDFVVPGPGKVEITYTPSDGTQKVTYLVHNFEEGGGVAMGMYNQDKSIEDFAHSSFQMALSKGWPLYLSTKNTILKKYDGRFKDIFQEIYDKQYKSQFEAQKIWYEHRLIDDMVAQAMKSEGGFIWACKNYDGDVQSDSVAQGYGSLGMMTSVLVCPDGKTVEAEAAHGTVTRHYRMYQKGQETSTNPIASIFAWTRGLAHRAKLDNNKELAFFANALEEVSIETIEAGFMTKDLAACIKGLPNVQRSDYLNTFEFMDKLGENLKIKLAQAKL
# T3 sequence (O75874 whole entry R132C): as the sequence (O75874 whole entry R132H) above, with H132C counted along it
SMILES,pIC50 [1],pIC50 (IDH1 R132H),pIC50 (IDH1 R132C)
"CCN1Cc2c(ccnc2N[C@@H](C)c2ccc(C(=O)c3cccnc3)c(F)c2)C1=O [Compound 61, (S)-2-ethyl-4-((1-(3-fluoro-4-nicotinoylphenyl)ethyl)amino)-2,3-dihydro-1H-pyrrolo[3,4-c]pyridin-1-one]",< 6.00,< 6.00,< 6.00
"CCN1Cc2c(ccnc2N[C@@H](C)c2ccc(C(=O)NC3CCCCC3)c(Cl)c2)C1=O [Compound 62, (S)-2-chloro-N-cyclohexyl-4-(1-((2-ethyl-1-oxo-2,3-dihydro-1H-pyrrolo[3,4-c]pyridin-4-yl)amino)ethyl)benzamide]",< 6.00,< 6.00,< 6.00
"CCN1Cc2c(ccnc2N[C@@H](C)c2cc(C(C)(C)C)ncc2F)C1=O [Compound 63, (S)-4-((1-(2-(tert-butyl)-5-fluoropyridin-4-yl)ethyl)amino)-2-ethyl-2,3-dihydro-1H-pyrrolo[3,4-c]pyridin-1-one]",< 6.00,< 6.00,< 6.00
"CCN1Cc2c(ccnc2N[C@@H](C)c2cc3cc(Cl)ccc3[nH]c2=O)C1=O [Compound 64, (S)-6-chloro-3-(1-((2-ethyl-1-oxo-2,3-dihydro-1H-pyrrolo[3,4-c]pyridin-4-yl)amino)ethyl)quinolin-2(1H)-one]",< 6.00,6.30 to 7.00,< 6.00
"CCN1Cc2c(ccnc2N[C@@H](C)c2ccc(C3CCCC3)c(F)c2)C1=O [Compound 68, 4-[[(1S)-1-(4-cyclopentyl-3-fluoro-phenyl)ethyl]amino]-2-ethyl-3H-pyrrolo[3,4-c]pyridin-1-one]",< 6.00,6.00 to 6.30,< 6.00
"CCN1Cc2c(ccnc2N[C@@H](C)c2ccc(-c3ccnc4ccccc34)c(F)c2)C1=O [Compound 70, (S)-2-ethyl-4-((1-(3-fluoro-4-(quinolin-4-yl)phenyl)ethyl)amino)-2,3-dihydro-1H-pyrrolo[3,4-c]pyridin-1-one]",< 6.00,< 6.00,< 6.00
"CCN1Cc2c(ccnc2N[C@@H](C)c2ccc(-c3ccc4c(ccn4C)c3)c(F)c2)C1=O [Compound 72, (S)-2-ethyl-4-((1-(3-fluoro-4-(1-methyl-1H-indol-5-yl)phenyl)ethyl)amino)-2,3-dihydro-1H-pyrrolo[3,4-c]pyridin-1-one]",< 6.00,6.30 to 7.00,6.00 to 6.30
"CCN1Cc2c(ccnc2N[C@@H](C)c2ccc(-c3ccc(C)cc3)c(F)c2)C1=O [Compound 73, (S)-2-ethyl-4-((1-(2-fluoro-4′-methyl-[1,1′-biphenyl]-4-yl)ethyl)amino)-2,3-dihydro-1H-pyrrolo[3,4-c]pyridin-1-one]",< 6.00,6.30 to 7.00,< 6.00
"CCN1Cc2c(ccnc2N[C@@H](C)c2ccc(-c3ccc(F)cc3)c(F)c2)C1=O [Compound 74, (S)-4-((1-(2,4′-difluoro-[1,1′-biphenyl]-4-yl)ethyl)amino)-2-ethyl-2,3-dihydro-1H-pyrrolo[3,4-c]pyridin-1-one]",< 6.00,< 6.00,< 6.00
"CCN1Cc2c(ccnc2N[C@@H](C)c2ccc(-c3ccc(C(F)(F)F)nc3)c(F)c2)C1=O [Compound 75, (S)-2-ethyl-4-((1-(3-fluoro-4-(6-(trifluoromethyl)pyridin-3-yl)phenyl)ethyl)amino)-2,3-dihydro-1H-pyrrolo[3,4-c]pyridin-1-one]",< 6.00,< 6.00,< 6.00
"CCN1Cc2c(ccnc2N[C@@H](C)c2ccc(-c3cc(C)nc(C)c3)c(F)c2)C1=O [Compound 76, (S)-4-((1-(4-(2,6-dimethylpyridin-4-yl)-3-fluorophenyl)ethyl)amino)-2-ethyl-2,3-dihydro-1H-pyrrolo[3,4-c]pyridin-1-one]",< 6.00,< 6.00,< 6.00
"CCN1Cc2c(ccnc2N[C@@H](C)c2ccc(-c3ccccc3)c(F)c2)C1=O [Compound 80, (S)-2-ethyl-4-((1-(2-fluoro-[1,1′-biphenyl]-4-yl)ethyl)amino)-2,3-dihydro-1H-pyrrolo[3,4-c]pyridin-1-one]",< 6.00,< 6.00,< 6.00
"CCN1Cc2c(ccnc2N[C@@H](C)c2ccc(-c3ccc(F)c(C)c3)c(F)c2)C1=O [Compound 81, (S)-4-((1-(2,4′-difluoro-3′-methyl-[1,1′-biphenyl]-4-yl)ethyl)amino)-2-ethyl-2,3-dihydro-1H-pyrrolo[3,4-c]pyridin-1-one]",< 6.00,6.30 to 7.00,6.00 to 6.30
"CCN1Cc2c(ccnc2N[C@@H](C)c2ccc(-c3ccc(C)cn3)c(F)c2)C1=O [Compound 82, (S)-2-ethyl-4-((1-(3-fluoro-4-(5-methylpyridin-2-yl)phenyl)ethyl)amino)-2,3-dihydro-1H-pyrrolo[3,4-c]pyridin-1-one]",< 6.00,< 6.00,< 6.00
"CCN1Cc2c(ccnc2N[C@@H](C)c2ccc(-c3ccn(C)n3)c(F)c2)C1=O [Compound 83, (S)-2-ethyl-4-((1-(3-fluoro-4-(1-methyl-1H-pyrazol-3-yl)phenyl)ethyl)amino)-2,3-dihydro-1H-pyrrolo[3,4-c]pyridin-1-one]",< 6.00,< 6.00,< 6.00

# Other lines, results leading:
pIC50 [1],pIC50 (IDH1 R132H),pIC50 (IDH1 R132C),SMILES
< 6.00,< 6.00,< 6.00,"CCN1Cc2c(ccnc2N[C@H](C)c2cn(-c3ccc(Cl)cc3)cn2)C1=O [Compound 58, (R)-4-((1-(1-(4-chlorophenyl)-1H-imidazol-4-yl)ethyl)amino)-2-ethyl-2,3-dihydro-1H-pyrrolo[3,4-c]pyridin-1-one]"
< 6.00,< 6.00,< 6.00,"CCN1Cc2c(ccnc2N[C@@H](C)c2ccc(-n3ccc(C)n3)c(F)c2)C1=O [Compound 59, (S)-2-ethyl-4-((1-(3-fluoro-4-(3-methyl-1H-pyrazol-1-yl)phenyl)ethyl)amino)-2,3-dihydro-1H-pyrrolo[3,4-c]pyridin-1-one]"
< 6.00,< 6.00,< 6.00,"CCN1Cc2c(ccnc2N[C@@H](C)c2ccc(C(=O)c3ccccc3)c(F)c2)C1=O [Compound 60, (S)-4-((1-(4-benzoyl-3-fluorophenyl)ethyl)amino)-2-ethyl-2,3-dihydro-1H-pyrrolo[3,4-c]pyridin-1-one]"
6.30 to 7.00,< 6.00,< 6.00,"CCN1Cc2c(N[C@@H](C)c3ccc(Oc4ccc(C)cc4)c(F)c3)ncnc2C1=O [Compound 65, 6-ethyl-4-[[(1S)-1-[3-fluoro-4-(4-methylphenoxy)phenyl]ethyl]amino]-5H-pyrrolo[3,4-d]pyrimidin-7-one]"
6.00 to 6.30,6.30 to 7.00,< 6.00,"CCN1Cc2c(N[C@@H](C)c3ccc(-c4ccnc(C(C)(C)C)c4)c(F)c3)ncnc2C1=O [Compound 66, (S)-4-((1-(4-(2-(tert-butyl)pyridin-4-yl)-3-fluorophenyl)ethyl)amino)-6-ethyl-5H-pyrrolo[3,4-d]pyrimidin-7(6H)-one]"
6.30 to 7.00,< 6.00,< 6.00,"CCN1Cc2c(N[C@@H](C)c3ccc(-c4ccc(F)c(C)c4)c(F)c3)ncnc2C1=O [Compound 67, (S)-4-((1-(2,4′-difluoro-3′-methyl-[1,1′-biphenyl]-4-yl)ethyl)amino)-6-ethyl-5H-pyrrolo[3,4-d]pyrimidin-7(6H)-one]"
6.00 to 6.30,< 6.00,< 6.00,"CCN1Cc2c(ccnc2N[C@@H](C)c2ccc(-c3ccnc(C(C)(C)C(N)=O)c3)c(F)c2)C1=O [Compound 69, 2-[4-[4-[(1S)-1-[(2-ethyl-1-oxo-3H-pyrrolo[3,4-c]pyridin-4-yl)amino]ethyl]-2-fluoro-phenyl]-2-pyridyl]-2-methyl-propanamide]"
6.30 to 7.00,> 7.00,> 7.00,"CCN1Cc2c(ccnc2N[C@@H](C)c2ccc(-c3ccnc(C(C)(C)C)c3)c(F)c2)C1=O [Compound 71, (S)-4-((1-(4-(2-(tert-butyl)pyridin-4-yl)-3-fluorophenyl)ethyl)amino)-2-ethyl-2,3-dihydro-1H-pyrrolo[3,4-c]pyridin-1-one]"
6.00 to 6.30,6.30 to 7.00,6.30 to 7.00,"CCN1Cc2c(ccnc2N[C@@H](C)c2ccc(-c3ccnc(C4CCC4)c3)c(F)c2)C1=O [Compound 77, (S)-4-((1-(4-(2-cyclobutylpyridin-4-yl)-3-fluorophenyl)ethyl)amino)-2-ethyl-2,3-dihydro-1H-pyrrolo[3,4-c]pyridin-1-one]"
6.00 to 6.30,< 6.00,< 6.00,"CCN1Cc2c(ccnc2N[C@@H](C)c2ccc(-c3ccnc(C4(O)CCC4)c3)c(F)c2)C1=O [Compound 78, (S)-2-ethyl-4-((1-(3-fluoro-4-(2-(1-hydroxycyclobutyl)pyridin-4-yl)phenyl)ethyl)amino)-2,3-dihydro-1H-pyrrolo[3,4-c]pyridin-1-one]"
6.00 to 6.30,6.30 to 7.00,6.30 to 7.00,"CCN1Cc2c(ccnc2N[C@@H](C)c2ccc(-c3ccnc(CC4CC4)c3)c(F)c2)C1=O [Compound 79, (S)-4-((1-(4-(2-(cyclopropylmethyl)pyridin-4-yl)-3-fluorophenyl)ethyl)amino)-2-ethyl-2,3-dihydro-1H-pyrrolo[3,4-c]pyridin-1-one]"
